{
  "source": "patent US20160058759A1",
  "about": "“GLUTAMINASE INHIBITOR THERAPY” (Board of Regents, The University of Texas System, priority 2014, published 2016)",
  "key": {"[1]": {"system": "NRF2/KEAP1 mutant NSCLC cell lines", "experiment": "ROS after GLS inhibitors", "assay_type": "cell-based", "protocol": "One day prior to the experiment, A549 cells were seeded in 6 well dishes (250,000 cells per well). The day of the experiment, cells were treated with 0.01% DMSO or 1 μM IACS-011393 for 24 hours. The following day, an allocated well was treated with hydrogen peroxide for 20-30 minutes as a positive control for ROS generation. All wells were then stained with CM-H2DCFDA (5 μM, Life Technologies) for 30 minutes at 37° C., washed with 1× PBS, harvested by trypsinization, and re-suspended in 400 μl phenol-free RPMI medium. Cells were strained through a […] cell strainer and analyzed using a flow cytometer (LSR Fortessa)."}, "[2]": {"system": "NRF2/KEAP1 mutant NSCLC cell lines", "experiment": "Glutathione level after GLS inhibitors", "assay_type": "cell-based", "protocol": "Cells were allowed to settle and attach overnight. Cells plated in triplicate for each concentration and control examined. […] Cells were incubated with compound or relevant controls for 24 hours. On Day 2, 24 hours after treatment, cells were analyzed by GSH-Glo (PromegaV6912) per manufacturer's instructions. Plates were read in luminescence mode on a PheraStarFS plate reader. Duplicate wells were plated and then stained with crystal violet in order to correct for differences in cell growth as described below."}},
  "data": [
    {"smiles": "O=C(Cc1ccccc1)Nc1nnc(CCSCCc2nnc(NC(=O)Cc3ccccc3)s2)s1", "note": "[BPTES, N,N′-(5,5′-(2,2′-thiobis(ethane-2,1-diyl))bis(1,3,4-thiadiazole-5,2-diyl))bis(2-phenylacetamide)]", "values": [
      {"measurement": "ROS", "setting": "[1]", "result": "increase in ROS"},
      {"measurement": "glutathione", "setting": "[2]", "result": "reduction in glutathione"}
    ]},
    {"smiles": "O=C(Cc1cccc(OC(F)(F)F)c1)Nc1ccc(CCCCc2nnc(NC(=O)Cc3ccccn3)s2)nn1", "note": "[CB-839, 2-(pyridin-2-yl)-N-{5-[4-(6-{2-[3-(trifluoromethoxy)phenyl]acetamido}pyridazin-3-yl)butyl]-1,3,4-thiadiazol-2-yl}acetamide]", "values": [
      {"measurement": "ROS", "setting": "[1]", "result": "increase in ROS"},
      {"measurement": "glutathione", "setting": "[2]", "result": "reduction in glutathione"}
    ]},
    {"smiles": "O=C(Cc1ccccn1)Nc1nnc(CCS(=O)(=O)CCc2nnc(NC(=O)Cc3ccccn3)s2)s1", "note": "[compound 13, N,N′-(5,5′-(2,2′-sulfonylbis(ethane-2,1-diyl))bis(1,3,4-thiadiazole-5,2-diyl))bis(2-(pyridin-2-yl)acetamide)]", "values": [
      {"measurement": "ROS", "setting": "[1]", "result": "increase in ROS"},
      {"measurement": "glutathione", "setting": "[2]", "result": "reduction in glutathione"}
    ]}
  ]
}
